Read-outs that look alike come from different tables or passages of the source. Residues, ends and D or L forms follow the SMILES beside them. *: point of attachment. Cbz = O=C(OCc1ccccc1)*
Key:
PDE4B / PDE4D = details: known property, cited from earlier work
CYLD [1] = test: NTHi-induced up-regulation of CYLD in epithelial cells (Q-PCR, Western blot); assay type: cell-based, human; details: for NTHi-induced up-regulation of CYLD at both mRNA and protein levels: HMEEC, A549 and primary NHBE cells, conventional and air-liquid-interface culture
Excerpt: (§1) Phosphodiesterases (PDEs) have been recognized as therapeutic targets. […] For this reason, we initially sought to determine if PDEs act as key negative regulator for CYLD.

[2] = system: NTHi-induced inflammation; test: NTHi-induced inflammation in epithelial cells (NF-κB activation, IL-1β, IL-8, TNF-α; Q-PCR, ELISA); assay type: cell-based, human; details: for concentration at which NTHi-induced inflammatory response was suppressed / NTHi-induced inflammatory response: HMEEC cell; for NTHi-induced inflammatory response: roflumilast at 1 μM
Excerpt: We next determined if PDE4 inhibition suppresses NTHi-induced inflammation. […] Despite showing that inhibiting PDE4 enhanced up-regulation of CYLD and suppressed NTHi-induced inflammation, it was still unclear whether inhibiting PDE4 suppressed inflammation by up-regulating CYLD or by inhibiting a positive regulator of inflammation (e.g., IKKβ).

TGF-β-signalling = test: TGF-β-induced SBE-promoter activity in mouse MEF cells; assay type: cell-based; details: Cyld−/− MEFs pretreated with inhibitor
Procedure: (§2) The expression plasmids Flag-WT-CYLD, HA-WT-CYLD, Flag-H/N-CYLD, HA-C/S-CYLD, Flag-WT-Smad3, C/A-TβRI, and the reporter plasmids SBE-Luc, PAI-1-Luc, and NF-κB-Luc were previously described. Flag-WT-Akt1, pRK5-HA-Ub WT, pRK5-HA-Ub K63, and pRK5-HA-Ub K48 were from Addgene, and K to R mutants of Akt were generated with WT-Akt1 using QuickChange XL Site-Directed Mutagenesis kit (Stratagene). All transient transfections were carried out using TransIT-LT1 reagent (Minis) or Lipofectamine (Invitrogen) according to manufacturers' instructions.

Smad3 [3] = test: Smad3 protein expression in cells incubated with Akt or PI3K inhibitor (immunoblotting); assay type: cell-based, mouse; details: 20 μM; MEF cells from Cyld+/+ and Cyld−/− mice (FIG. 5d), cells (FIG. 5e)
Procedure: FIG. 5 illustrates that CYLD decreases Smad3 stability by inhibiting Akt. (a) MEF cells from Cyld+/+ and Cyld−/− mice were transfected with siCon or siAkt1/2 and analysed by immunoblotting with the indicated antibodies. (b) SBE-promoter activity was determined in siCYLD-transfected A549 cells with or without siAkt co-transfection and stimulated with TGF-β. (c) SBE-promoter activity was determined in MEFs from Cyld+/+ and Cyld−/− mice pretreated with Akt inhibitor and stimulated with TGF-β. (d) MEF cells from Cyld+/+ and Cyld−/− mice were incubated with Akt inhibitor (20 μM), and cell lysates were analysed by immunoblotting with the indicated antibodies. (e) Cells were incubated with Akt inhibitor (20 μM) or LY294002 (20 μM), and cell lysates were analysed by immunoblotting with the indicated antibodies. (f) Lysates from cells transfected with HA-CYLD and Flag-Akt were immunoprecipitated with anti-CYLD antibody (upper panel) or anti-Akt antibody (lower panel), and interacting proteins were analysed by immunoblotting. […]
Western blot, immunoprecipitation and ubiquitination experiments were performed as follows. […] Immunoprecipitates were then suspended in a sample buffer, separated on 8% SDS-PAGE, transferred to polyvinylidine difluoride membrane, and detected by immunoblot analysis, as described above. […]

PAI-1 = test: TGF-β-induced PAI-1 expression (promoter activity, mRNA) in human cells; assay type: cell-based; details: WT-CYLD-transfected cells pre-treated with MG-132; mRNA
Procedure: Total RNA was isolated using TRIzol reagent following the manufacturer's instructions. Synthesis of complementary DNA from total RNA was performed with MultiScribe reverse transcriptase. Real-time quantitative PCR was performed using an ABI 7500 Sequence Detection System (Applied Biosystems). Relative quantities of mRNAs were calculated using the comparative threshold cycle method and normalized using human and mouse glyceraldehyde-3-phosphate dehydrogenase as an endogenous control. The primer sequences for mouse COL1A2, COL3A1, CTGF and PAI-1, and human PAI-1, CHIP, and Smad3 are as follows. Mouse CTGF: 5′-[…]-3′ (SEQ ID NO:1) and 5′-[…]-3′ (SEQ ID NO:2); mouse COL1A2: 5′-[…]-3′ (SEQ ID NO:3) and 5′-[…]-3′ (SEQ ID NO:4); mouse COL3A1: 5′-[…]-3′ (SEQ ID NO:5) and 5′-[…]-3′ (SEQ ID NO:6); mouse PAI-1: 5′-[…]-3′ (SEQ ID NO:7) and 5′-[…]-3′ (SEQ ID NO:8); human PAI-1: 5′-[…]-3′ (SEQ ID NO:9) and 5′-[…]-3′ (SEQ ID NO:10); human CHIP: 5′-[…]-3′ (SEQ ID NO:11) and 5′-[…]-3′ (SEQ ID NO:12).
as §2

Smad3 [4] = test: Smad3 protein level in transfected cells by immunoblotting; assay type: cell-based, human
Procedure: Western blot, immunoprecipitation and ubiquitination experiments were performed as follows. Western blots were performed using whole-cell extracts, separated on 8 or 10% SDS-PAGE gels, and transferred to polyvinylidine di& uoride membranes. The membrane was blocked with a solution of PBS containing 0.1% Tween 20 (PBS-T) and 5% BSA. The membrane was then incubated in a 1:2,000 dilution of a primary antibody in 5% BSA-PBS-T. After three washes in PBS-T, the membrane was incubated with 1:5,000 dilution of the corresponding secondary antibody in 3% non-fact skim milk-PBS-T. Respective proteins were visualized by using enhanced chemiluminescence detection reagents, according to the manufacturer's instructions. To conduct immunoprecipitation analysis, cell lysates were incubated with 1 μg of primary antibodies overnight, at 4° C., followed by 2-h incubation with protein A/G-agarose beads (Invitrogen). Immunoprecipitates were then suspended in a sample buffer, separated on 8% SDS-PAGE, transferred to polyvinylidine difluoride membrane, and detected by immunoblot analysis, as described above. […]

lung fibrosis = test: S. pneumoniae-induced lung fibrosis in Cyld−/− mice (H&E, Masson's trichrome); assay type: in vivo, mouse
Procedure: Cyld−/− mice were generated by homologous recombination as follows. The targeting construct was designed to disrupt the exons 2 and 3 with an IRES-LacZ/MC1-Neo cassette. The targeting plasmid was linearized and transfected into embryonic stem cells of a 129/S. Homologously recombined embryonic stem cells were injected into blastocysts that were subsequently transferred to foster mothers, to generate chimeric progeny. Generated chimeric progeny were backcrossed to C57BL/6J, and germline transmission was confirmed by PCR with tail DNA. Homozygous knockout of Cyld gene was confirmed by mRNA detection by RT-PCR and CYLD protein detection by western blot analysis in MEF cells and lung tissues. For S. pneumoniae-induced severe infections in WT and Cyld−/− mice, anaesthetized mice were intratracheally (i.t.) inoculated with live S. pneumoniae (5×10^7 CFU per mouse). Surviving mice from severe pneumonia were then sacrificed 2 weeks post S. pneumoniae infection for histopathological analysis. For TGF-β inoculation, anesthetized WT and Cyld−/− mice were i.t. inoculated with TGF-β (25-100 ng per mouse) for 6 hours, and lung tissues were then subjected to total mRNA and protein extraction. […]

NF-κB = NF-κB activation induced by overexpressing constitutively active IKKβ or wild-type p65; assay type: cell-based
Excerpt: We next determined if PDE4 inhibitors may also suppress inflammation via directly inhibiting IKKβ, the key positive regulator of NF-κB-dependent inflammation.

CYLD [5] = test: CYLD up-regulation in the middle ear of mouse OM model (Q-PCR, IF staining); assay type: in vivo
Excerpt: as §1
Ototopical administration works effectively when the eardrum is perforated either pathologically or surgically by tympanostomy tube insertion. Thus, we first determined if ototopical administration of rolipram up-regulates CYLD and suppresses inflammation in the middle ear of mice post NTHi inoculation.

[6] = system: NTHi-induced inflammation; test: NTHi-induced middle ear inflammation in mouse OM model (cytokines, otoscopy, histopathology); assay type: in vivo
[7] = ototopical pre- and post-inoculation administration, mouse OM model

O=C(Nc1c(Cl)cncc1Cl)c1ccc(OC(F)F)c(OCC2CC2)c1 [roflumilast]
PDE4 subfamily selectivity (PDE4B versus PDE4D) (PDE4B / PDE4D): more selective for PDE4B than for PDE4D | PDE4 subfamily selectivity (PDE4B versus PDE4D) (PDE4B / PDE4D; listed as Roflumilast): more specific inhibitor for PDE4B | CYLD expression (CYLD [1]): enhanced | concentration at which NTHi-induced inflammatory response was suppressed [2]: 1 µM | NTHi-induced inflammatory response [2]: markedly suppressed

CCCCOc1cc(CC2CNC(=O)N2)ccc1OC (centres unmarked) [Ro20-1724]
NTHi-induced up-regulation of CYLD at both mRNA and protein levels (CYLD [1]): markedly enhanced

CCCCCCCCCCCCCCCCCCOCC(COC(=O)OC1C(O)C(O)C(O)C(CO)C1O)OC [Akt inhibitor, 1L6-Hydroxymethyl-chiro-inositol-2(R)-2-O-methyl-3-O-octadecyl-sn-glycerocarbonate]
enhanced TGF-β-induced SBE promoter activity (TGF-β-signalling): inhibited | Smad3 protein expression (Smad3 [3]): markedly reduced

CC(C)C[C@@H](C=O)NC(=O)[C@H](CC(C)C)NC(=O)[C@H](CC(C)C)NC(=O)OCc1ccccc1 [MG132] (Cbz-Leu-Leu-Leu-aldehyde)
WT-CYLD-induced decrease in TGF-β-induced PAI-1 expression (PAI-1): reversed | WT-CYLD-induced decrease in Smad3 protein level (Smad3 [4]; WT-CYLD-transfected cells, 20 μM): reversed

Cn1cc(C2=C(c3ccc(Cl)cc3Cl)C(=O)NC2=O)c2ccccc21 [SB216763]
WT-CYLD-induced Smad3 decrease (Smad3 [4]; A549 cells, 5 μM for 12 h): reversed

COc1ccc([C@]2(C#N)CC[C@@H](C(=O)O)CC2)cc1OC1CCCC1 [cilomilast]
PDE4 subfamily selectivity (PDE4B versus PDE4D) (PDE4B / PDE4D): more PDE4D selective | NTHi-induced inflammatory response [2]: no significant inhibitory effect

NC(=O)c1ccc(-c2nc(-c3ccccn3)c(-c3ccc4c(c3)OCO4)[nH]2)cc1 [SB431542]
lung fibrosis in S. pneumoniae-inoculated Cyld−/− lungs (lung fibrosis; 10 mg per kg body weight intraperitoneal, 2-weeks post infection): inhibited

C[S+]([O-])c1ccc(-c2nc(-c3ccc(F)cc3)c(-c3ccncc3)[nH]2)cc1 (centres unmarked) [SB203580]
lung fibrosis in Cyld−/− mice (lung fibrosis; S. pneumoniae infection, 20 mg kg−1 intraperitoneal 1-2 hours before inoculation): did not affect

COc1ccc(C2CNC(=O)C2)cc1OC1CCCC1 (centres unmarked) [rolipram]
NTHi-induced up-regulation of CYLD at both mRNA and protein levels (CYLD [1]): markedly enhanced | activation of NF-κB induced by overexpressing constitutively active IKKβ or wild-type p65 (NF-κB): did not significantly inhibit | up-regulation of CYLD at the mRNA level and protein level in the middle ear mucosa (CYLD [5]; mouse model of OM, Q-PCR and IF staining): enhanced | CYLD expression in the middle ear (CYLD [5]; [7]): up-regulated | NTHi-induced otoscopic pathological changes of OM (congestion and swelling of tympanic membranes, mucous effusion) ([6]; i.p. administration, NTHi-inoculated mice, otoscopic examination): inhibited | middle ear mucosal thickening and PMN infiltration in the middle ear mucosa ([6]; i.p. administration, histopathologic analysis): inhibited | NTHi-induced up-regulation of IL-1β and MIP-2, middle ear mucosal thickening and PMN infiltration ([6]; i.p. administration, mouse OM model, CYLD-deficiency context): no longer inhibited | NTHi-induced up-regulation of the proinflammatory mediators in the middle ear of mouse ([6]; mouse): inhibited | middle ear inflammation [6, 7]: suppressed | NTHi-induced mRNA expression of these cytokines in CYLD-deficient cells ([2]; CYLD-deficient cells): failed to inhibit | concentration at which NTHi-induced inflammatory response was suppressed [2]: 10 µM | NTHi-induced NF-κB activation ([2]; HMEEC, A549, primary NHBE cells): potently inhibited | NTHi-induced up-regulation of IL-1β, IL-8 and TNF-α in CYLD-depleted cells ([2]; HMEEC, A549, primary NHBE cells, CYLD depleted with siRNA CYLD): no longer inhibited | NTHi-induced up-regulation of pro-inflammatory mediators IL-1β, IL-8 and TNF-α at the mRNA and protein levels ([2]; HMEEC, A549, primary NHBE cells, Q-PCR and ELISA): potently inhibited

Reference: US9951335B2, “Compositions and methods for treating otitis media and other conditions with inhibitors of CYLD” (Georgia State University Research Foundation, Inc., priority 2012, dated 2018)
